In brackets after ≈: the same amount, converted by molar mass. Activity calls are given as the source filed them. No cut-off for these calls is given here.
Key:
[1] = test system: Human alphaherpesvirus 1; test: Antiviral activity against thymidine kinase-deficient ACV-resistant Herpes simplex virus 1 B-2006 infected in HEL cells assessed as reduction in virus-induced cytopathicity after 3 days; assay type: functional, organism-based; settings: Human alphaherpesvirus 1, B-2006, HEL, 72 h
[2] = test system: Human alphaherpesvirus 2; test: Antiviral activity against Herpes simplex virus 2 G infected in HEL cells assessed as reduction in virus-induced cytopathicity after 3 days; assay type: functional, organism-based; settings: Human alphaherpesvirus 2, strain G, 72 h
[3] = test system: Human alphaherpesvirus 3; test: Antiviral activity against thymidine kinase-positive Varicella zoster virus Oka infected in HEL cells assessed as reduction in viral plaque formation after 5 days; assay type: functional, organism-based; settings: Human alphaherpesvirus 3, strain Oka vaccine, 120 h
[4] = test system: Human betaherpesvirus 5; test: Antiviral activity against Human cytomegalovirus AD169 infected in HEL cells assessed as reduction in virus-induced cytopathicity after 7 days; assay type: functional, organism-based
[5] = test system: Mycobacterium tuberculosis; test: Antibacterial activity against Mycobacterium tuberculosis H37Rv ATCC 27294 up to 2 weeks by HT-SPOTi assay; assay type: functional; settings: H37Rv ATCC 27294, 336 h
[6] = test system: Human betaherpesvirus 5; test: Antiviral activity against Human cytomegalovirus Davis infected in HEL cells assessed as reduction in virus-induced cytopathicity after 7 days; assay type: functional, organism-based
[7] = Cytotoxicity against HEL cells assessed as reduction in cell growth after 3 to 5 days by Coulter counting analysis; assay type: cell-based; settings: human
[8] = Cytotoxicity against HEL cells assessed as morphological changes after 3 to 5 days […]; assay type: cell-based; settings: human
[9] = test system: Vaccinia virus; test: Antiviral activity against Vaccinia virus infected in HEL cells assessed as reduction in virus-induced cytopathicity after 3 days; assay type: functional, organism-based; settings: Orthopoxvirus vaccinia
[10] = test system: Escherichia coli; test: Antibacterial activity against Escherichia coli DH5[alpha] ATCC 53868 after overnight incubation by HT-SPOTi assay; assay type: functional, organism-based
[11] = test system: Human alphaherpesvirus 1; test: Antiviral activity against thymidine kinase-positive Herpes simplex virus 1 KOS infected in HEL cells assessed as reduction in virus-induced cytopathicity after 3 days; assay type: functional, organism-based; settings: Human alphaherpesvirus 1, KOS, 72 h
[12] = test system: Human alphaherpesvirus 3; test: Antiviral activity against thymidine kinase-deficient Varicella zoster virus 07-1 infected in HEL cells assessed as reduction in viral plaque formation after 5 days; assay type: functional, organism-based; settings: Human alphaherpesvirus 3, 07-1, HEL, 120 h

| SMILES | EC50 [1] [µM] | EC50 [2] [µM] | EC50 [3] [µM] | Activity [4] | MIC [5] [µg/mL] | Activity [6] | CC50 [7] [µM] | MCC [8] [µM] | Activity [9] | Activity [10] | EC50 [11] [µM] | EC50 [12] [µM] |
| --- | --- | --- | --- | --- | --- | --- | --- | --- | --- | --- | --- | --- |
| CCCCCCCC(=O)NCC#Cc1cn([C@H]2C[C@H](O)[C@@H](COP(=O)(N[C@@H](C)C(=O)OCC(C)C)Oc3cccc4ccccc34)O2)c(=O)[nH]c1=O (stereo not given in full) | > 100 | > 100 | 20 | inactive | 62.5 (≈ 84.4 µM) | inactive | 15 | > 100 | inactive | inactive | > 100 | > 20 |
| CCCCCCCC(=O)NCC#Cc1cn([C@H]2C[C@H](O)[C@@H](COP(=O)(N[C@@H](C)C(=O)OCCC)Oc3ccccc3)O2)c(=O)[nH]c1=O (stereo not given in full) |  |  |  |  | 125 (≈ 185 µM) |  |  |  |  | inactive |  |  |
| CCCCCCCC(=O)NCC#Cc1cn([C@H]2C[C@H](O)[C@@H](CO)O2)c(=O)[nH]c1=O | > 100 | > 100 | > 100 | inactive | > 250 | inactive | > 100 |  | inactive | inactive | > 100 | > 100 |
| CCCCCCCC(=O)NCC#Cc1cn([C@H]2C[C@H](O)[C@@H](COP(=O)(N[C@@H](C)C(=O)OCC)Oc3ccccc3)O2)c(=O)[nH]c1=O (stereo not given in full) |  |  |  |  | 250 (≈ 377 µM) |  |  |  |  | inactive |  |  |
| Nc1nc2c(ncn2COCCO)c(=O)[nH]1 [ACYCLOVIR] |  | 0.1 | 2.6 |  |  |  | 440 | > 440 |  |  |  | 140 |
| CCCCCCCC(=O)NCC#Cc1cn([C@H]2C[C@H](O)[C@@H](COP(=O)(N[C@@H](C)C(=O)OCC)Oc3cccc4ccccc34)O2)c(=O)[nH]c1=O (stereo not given in full) |  |  |  |  | 125 (≈ 175 µM) |  |  |  |  | inactive |  |  |
| CCCCCCCC(=O)NCC#Cc1cn([C@H]2C[C@H](O)[C@@H](COP(=O)(N[C@H](C)C(=O)OCc3ccccc3)Oc3ccccc3)O2)c(=O)[nH]c1=O (stereo not given in full) |  |  |  |  | 125 (≈ 172 µM) |  |  |  |  | inactive |  |  |
| CCCCCCCC(=O)NCC#Cc1cn([C@H]2C[C@H](O)[C@@H](COP(=O)(NC(C)(C)C(=O)OCc3ccccc3)Oc3ccccc3)O2)c(=O)[nH]c1=O (stereo not given in full) |  |  |  |  | > 125 |  |  |  |  | inactive |  |  |
| CCCCCCCC(=O)NCC#Cc1cn([C@H]2C[C@H](O)[C@@H](COP(=O)(N[C@H](C(=O)OCc3ccccc3)C(C)C)Oc3ccccc3)O2)c(=O)[nH]c1=O (stereo not given in full) |  |  |  |  | 31.2 (≈ 41.5 µM) |  |  |  |  | inactive |  |  |
| CCCCCCCC(=O)NCC#Cc1cn([C@H]2C[C@H](O)[C@@H](COP(=O)(N[C@@H](C)C(=O)OCc3ccccc3)Oc3cccc4ccccc34)O2)c(=O)[nH]c1=O (stereo not given in full) | > 100 | > 100 | 8.6 | inactive | 250 (≈ 323 µM) | inactive | 39 | > 100 | inactive | inactive | > 100 | > 20 |
| CCCCCCCC(=O)NCC#Cc1cn([C@H]2C[C@H](O)[C@@H](COP(=O)(N[C@@H](C)C(=O)OCc3ccccc3)Oc3ccccc3)O2)c(=O)[nH]c1=O (stereo not given in full) | > 100 | 4 | 2 | inactive | 125 (≈ 172 µM) | inactive | 48 | > 100 | inactive | inactive | 2 | > 20 |
| CCCCCCCC(=O)NCC#Cc1cn([C@H]2C[C@H](O)[C@@H](COP(=O)(N[C@@H](C)C(=O)OC)Oc3cccc4ccccc34)O2)c(=O)[nH]c1=O (stereo not given in full) | > 100 | > 100 | 37 | inactive | 62.5 (≈ 89.5 µM) | inactive | 64 | > 100 | inactive | inactive | > 100 | 46 |
| CCCCCCCC(=O)NCC#Cc1cn([C@H]2C[C@H](O)[C@@H](COP(=O)(N[C@@H](C)C(=O)OC)Oc3ccccc3)O2)c(=O)[nH]c1=O (stereo not given in full) |  |  |  |  | > 250 |  |  |  |  | inactive |  |  |
| CCCCCCCC(=O)NCC#Cc1cn([C@H]2C[C@H](O)[C@@H](COP(=O)(NCC(=O)OCc3ccccc3)Oc3ccccc3)O2)c(=O)[nH]c1=O (stereo not given in full) |  |  |  |  | > 250 |  |  |  |  | inactive |  |  |

From ChEMBL document CHEMBL3259765, “ProTides of N-(3-(5-(2'-deoxyuridine))prop-2-ynyl)octanamide as potential anti-tubercular and anti-viral agents” (Bioorg Med Chem, 2014)
